{"source": "patent US20080248953A1", "about": "“Use of Bacteriocins For Promoting Plant Growth and Disease Resistance” (MCGILL UNIVERSITY, priority 2005, published 2008)", "assay_type_in_all_cases": "in vivo, Glycine max", "key": {"[1]": {"system": "phenylalanine ammonia lyase (PAL)", "experiment": "PAL activity in soybean leaves after treatment", "description": "(§1) Soybean (Glycine max L. Merr. cv. OAC Bayfield) seeds were surface sterilized in 10% bleach, rinsed several times with distilled water and then germinated and grown in Vermiculite™ (Holiday, Montreal) in a growth chamber under a 16 h/8 h (day/night) regime (natural light supplemented with high pressure sodium lamps to reach the appropriate daylight), at 25±1° C., until they reached vegetative cotyledon (VC) stage (Fehr and Caviness, 1977).\n(§2) Treatments of chitin hexamer and thuricin 17 were applied when the seedling reached the first trifoliate stage (˜2 weeks old). Chitin hexamer and thuricin 17 treatments were applied through cut stems, as described by Orozco-Cardenas and Ryan (1999). The plants were excised at the base of the stem with a sharp scalpel and promptly placed in 2 mL Eppendorff™ tubes containing 0.5 mL of 100 μmol L^−1 chitin hexamer [(GlcNAc)6], 0.5 mL of […] thuricin 17, and chitin hexamer+thuricin 17 mixed (1:1) solution in phosphate buffer (15 mM sodium phosphate, pH 6.5). The control plants were treated with phosphate buffer solution alone. Once all the solution was taken up by the plants (4-6 h), they were immediately transferred to glass test tubes containing 20 mL distilled water. The plants were kept under constant white light (85 μmol·m^−2·s^−1). […]\n(§3) Leaf samples (300 mg fresh weight) were extracted in 4 mL of buffer (50 mM Tris pH 8.5, 14.4 mmol L^−1 2-mercaptoethanol, 1% w/v insoluble polyvinyl-polypyrrorolidone) and centrifuged at 6,000 g for 10 min at 4° C. The total protein concentration in soluble enzyme extracts was determined using the Bradford (1976) assay.\n(§4) The method of Beaudoin-Eagan and Thorpe (1985) was used to estimate phenylalanine ammonia lyase (PAL) and tyrosine ammonia lyase (TAL) activities. […] The amounts of trans-cinnamic and p-coumaric acids formed were determined by measuring absorbance at 290 and 330 nm, respectively, against an identical mixture in which D-phenylalanine was substituted for L-phenylalanine and D-tyrosine for L-tyrosine. […]"}, "peroxidase (POD)": {"system": "peroxidase (POD)", "experiment": "POD activity in soybean leaves", "settings": "72 h after treatment", "description": "as §1\nas §2, with “6.5).” for “6.5). The control plants were treated with phosphate buffer solution alone. Once all the solution was taken up by the plants (4-6 h), they were immediately transferred to glass test tubes containing 20 mL distilled water. The plants were kept under constant white light (85 μmol·m^−2·s^−1).”\nThe activity of peroxidase (POD) was assessed using the method of Chance and Maehly (1955). […] The reaction was started with addition of 20 μL of 40 mM H2O2 and the change in the absorbance at 470 nm was recorded for 1 min. The activity of peroxidase was calculated using an extinction coefficient for the tetraguaiacol of 26.6 mM^−1 cm^−1 at 470 nm. […]"}, "[2]": {"system": "superoxide dismutase (SOD)", "experiment": "SOD activity in soybean leaves", "description": "as §1\nas §2, with “alone.” for “alone. Once all the solution was taken up by the plants (4-6 h), they were immediately transferred to glass test tubes containing 20 mL distilled water. The plants were kept under constant white light (85 μmol·m^−2·s^−1).”\nThe activity of superoxide dismutase (SOD) was determined by measuring its ability to inhibit the photoreduction of nitroblue tetrazolium (NBT) following the method of Giannopolitis and Ries (1977). […] Absorbance was recorded at 560 nm. […]"}, "[3]": {"system": "tyrosine ammonia lyase (TAL)", "experiment": "TAL activity in soybean leaves after treatment", "description": "as §1, §2, §3, §4"}, "catalase (CAT)": {"system": "catalase (CAT)", "experiment": "Catalase activity staining after PAGE", "settings": "soybean leaves", "description": "Treatments of chitin hexamer and thuricin 17 were applied when the seedling reached the first trifoliate stage (˜2 weeks old). Chitin hexamer and thuricin 17 treatments were applied through cut stems, as described by Orozco-Cardenas and Ryan (1999). The plants were excised at the base of the stem with a sharp scalpel and promptly placed in 2 mL Eppendorff™ tubes containing 0.5 mL of 100 μmol L^−1 chitin hexamer [(GlcNAc)6], 0.5 mL of […] thuricin 17, and chitin hexamer+thuricin 17 mixed (1:1) solution in phosphate buffer (15 mM sodium phosphate, pH 6.5). The control plants were treated with phosphate buffer solution alone. Once all the solution was taken up by the plants (4-6 h), they were immediately transferred to glass test tubes containing 20 mL distilled water. The plants were kept under constant white light (85 μmol·m^−2·s^−1). Leaves were collected at 12, 24, 36, 48, 60 and 72 h after elicitor treatment, weighed, placed in plastic bags and stored immediately at −80° C.\nFor the catalase activity (CAT) staining after 12.5% PAGE, the gel was incubated with 3.2 mM H2O2 for 20 min, and a treatment with a solution containing 1% FeCl3 and 1% K3Fe(CN)6 for 10 min, as described by Racchi et al (2001)."}, "total phenolic compounds": {"system": "total phenolic compounds", "experiment": "Total phenolics in soybean leaves (Folin-Ciocalteu)", "description": "as §1\nas §2, with “alone.” for “alone. Once all the solution was taken up by the plants (4-6 h), they were immediately transferred to glass test tubes containing 20 mL distilled water. The plants were kept under constant white light (85 μmol·m^−2·s^−1).”\nTotal phenolic content was determined by the Folin-Ciocalteu method (Singleton and Rossi, 1965). […] After 3 min, 0.475 mL of 1 mol L^−1 Na2CO3 was added and after 1 h absorbance was measured. […] The total phenolic content was expressed as gallic acid equivalents (GAE) in mg g^−1 fresh weight (FW)."}}, "data": [{"compound": "CC(=O)N[C@H]1[C@H](O[C@H]2[C@H](O)[C@@H](NC(C)=O)[C@H](O[C@H]3[C@H](O)[C@@H](NC(C)=O)C(O)O[C@@H]3CO)O[C@@H]2CO)O[C@H](CO)[C@@H](O[C@@H]2O[C@H](CO)[C@@H](O[C@@H]3O[C@H](CO)[C@@H](O[C@@H]4O[C@H](CO)[C@@H](O)[C@H](O)[C@H]4NC(C)=O)[C@H](O)[C@H]3NC(C)=O)[C@H](O)[C@H]2NC(C)=O)[C@@H]1O", "note": "(stereo partly drawn) [chitin hexamer, chitin hexamer [(GlcNAc)6]]", "values": [{"measurement": "PAL activity time course", "setting": "[1]; 12 to 72 h after treatment", "value": "increased continuously"}, {"measurement": "PAL activity increase compared with control", "setting": "[1]; 60 h after treatment", "value": 8.4, "unit": "%"}, {"measurement": "PAL activity greater than the control", "setting": "[1]; 72 h after treatment", "value": 18.1, "unit": "%"}, {"measurement": "POD activity increase compared with control", "setting": "peroxidase (POD)", "value": 40.3, "unit": "%"}, {"measurement": "induction of SOD activity", "setting": "[2]", "value": "not induced"}, {"measurement": "SOD activity increase compared with control", "setting": "[2]; 48 h after treatment", "value": 24.9, "unit": "%"}, {"measurement": "TAL activity time course", "setting": "[3]; 12 to 72 h after treatment", "value": "increased continuously"}, {"measurement": "TAL activity increase compared with the control", "setting": "[3]; 48 h after treatment", "value": 18.8, "unit": "%"}, {"measurement": "TAL activity increase compared with the control", "setting": "[3]; 72 h after treatment", "value": 23.8, "unit": "%"}, {"measurement": "induction of CAT activity", "setting": "catalase (CAT)", "value": "elicited increases"}, {"measurement": "total phenolics increase compared with the control", "setting": "total phenolic compounds; 36 h after treatment", "value": 15.3, "unit": "%"}, {"measurement": "total phenolics increase compared with the control", "setting": "total phenolic compounds; 72 h after treatment", "value": 1.4, "unit": "%"}]}]}
